Reference: article PMC5321607 (ACS infectious diseases, 2016)
pKd: −log10 of the molar value.

What was measured:
[1] = molecular target: anti-polymyxin B mouse IgM monoclonal antibody (clone 45); assay type: binding; conditions: SPR; for pKd: Biacore T200, 25°C, HBS-EP+, 1:1 kinetic fit or steady-state
P. aeruginosa ATCC 27853 = experiment: MIC by broth microdilution; assay type: cell-based; conditions: CaMHB, 18 h, 37°C
[2] = system: P. aeruginosa FADDI-PA001; experiment: MIC by broth microdilution; assay type: cell-based; conditions: CaMHB, 18 h, 37°C
[3] = system: P. aeruginosa FADDI-PA025; experiment: MIC by broth microdilution; assay type: cell-based; conditions: CaMHB, 18 h, 37°C
[4] = system: P. aeruginosa FADDI-PA070; experiment: MIC by broth microdilution; assay type: cell-based; conditions: CaMHB, 18 h, 37°C
[5] = system: P. aeruginosa FADDI-PA060; experiment: MIC by broth microdilution; assay type: cell-based; conditions: CaMHB, 18 h, 37°C
[6] = system: P. aeruginosa FADDI-PA090; experiment: MIC by broth microdilution; assay type: cell-based; conditions: CaMHB, 18 h, 37°C
A. baumannii ATCC 19606 = experiment: MIC by broth microdilution; assay type: cell-based; conditions: CaMHB, 18 h, 37°C
A. baumannii FADDI-AB110 = experiment: MIC by broth microdilution; assay type: cell-based; conditions: CaMHB, 18 h, 37°C
A. baumannii ATCC 17978 = experiment: MIC by broth microdilution; assay type: cell-based; conditions: CaMHB, 18 h, 37°C
A. baumannii FADDI-AB156 = experiment: MIC by broth microdilution; assay type: cell-based; conditions: CaMHB, 18 h, 37°C
A. baumannii FADDI-AB167 = experiment: MIC by broth microdilution; assay type: cell-based; conditions: CaMHB, 18 h, 37°C
[7] = system: K. pneumoniae FADDI-KP032; experiment: MIC by broth microdilution; assay type: cell-based; conditions: CaMHB, 18 h, 37°C
[8] = system: K. pneumoniae FADDI-KP027; experiment: MIC by broth microdilution; assay type: cell-based; conditions: CaMHB, 18 h, 37°C
[9] = system: K. pneumoniae FADDI-KP003; experiment: MIC by broth microdilution; assay type: cell-based; conditions: CaMHB, 18 h, 37°C
[10] = system: K. pneumoniae FADDI-KP012; experiment: MIC by broth microdilution; assay type: cell-based; conditions: CaMHB, 18 h, 37°C
E. cloacae FADDI-EC006 = experiment: MIC by broth microdilution; assay type: cell-based; conditions: CaMHB, 18 h, 37°C
E. cloacae FADDI-EC001 = experiment: MIC by broth microdilution; assay type: cell-based; conditions: CaMHB, 18 h, 37°C
E. cloacae FADDI-EC003 = experiment: MIC by broth microdilution; assay type: cell-based; conditions: CaMHB, 18 h, 37°C

| Substance | pKd [1] | MIC (P. aeruginosa ATCC 27853) [µg/mL] | MIC [2] [µg/mL] | MIC [3] [µg/mL] | MIC [4] [µg/mL] | MIC [5] [µg/mL] | MIC [6] [µg/mL] | MIC (A. baumannii ATCC 19606) [µg/mL] | MIC (A. baumannii FADDI-AB110) [µg/mL] | MIC (A. baumannii ATCC 17978) [µg/mL] | MIC (A. baumannii FADDI-AB156) [µg/mL] | MIC (A. baumannii FADDI-AB167) [µg/mL] | MIC [7] [µg/mL] | MIC [8] [µg/mL] | MIC [9] [µg/mL] | MIC [10] [µg/mL] | MIC (E. cloacae FADDI-EC006) [µg/mL] | MIC (E. cloacae FADDI-EC001) [µg/mL] | MIC (E. cloacae FADDI-EC003) [µg/mL] | reduction in mAb binding affinity ([1]; compared to polymyxin B (FADDI-206/207: polymyxin B and colistin)) [fold] |
| --- | --- | --- | --- | --- | --- | --- | --- | --- | --- | --- | --- | --- | --- | --- | --- | --- | --- | --- | --- | --- |
| Octanoyl-Dab-Thr-Dab-Dab ^*-Dab-D-Phe-Leu-Dab-Dab-Thr ^* [Polymyxin B] | 6.59 | 1 | 1 | 1 | 32 | >32 | 4 | 1 | 0.5 | 1 | 8 | 16 | <0.125 | 128 | >32 | 16 | 0.5 | 0.25 | 0.5 |  |
| Octanoyl-Dab-Thr-Dab-Dab ^*-Dab-D-Leu-Leu-Dab-Dab-Thr ^* [Colistin] | 6.25 | 1 | 1 | 2 | >128 | >128 | 8 | 1 | 0.5 | 0.5 | 16 | 8 | 1 | >128 | 128 | 32 | <0.125 | 0.25 | <0.125 | 2 |
